{
  "source": "patent US6294568A",
  "about": "“5-arylpyrrole derivatives” (priority 1997, dated 2001)",
  "key": {"[1]": {"test_system": "CaCo-2 cells", "assay": "Cytostatic Action Test on Various Cells (XTT method)", "assay_type": "cell-based", "description": "The cytostatic measurement of the various cancer cells were conducted according to the method of the U.S. National Cancer Institute (NCI). Adhesive cells such as CaCo-2 and HepG2 were adjusted in each of the specified culture mediums at 0.5×10^5 cells/ml concentration and pipetted into a 96 well-plate (Costar3695) in an amount of 100 μl/well. The cells were cultured under the conditions of at 37° C. in 5% CO2 atmosphere for 24 hours to allow the cell adhesion, and then the numbers of each of the cells were determined by the XTT method to be recorded as the cell number of day 0 (C0days). After that, only the medium solutions were exchanged in the control groups, and culture mediums each containing the test samples adjusted to each of the specified concentrations were exchanged In the test sample dispensing groups, then the cells were cultured under the conditions of at 37° C. in 5% CO2 atmosphere for 72 hours. The numbers of each of the cells were determined by the XTT method to be recorded as the cell number of day 3 (C3days). Further, only the medium solutions were pipetted into the control groups and the test sample administration groups were adjusted to 5×10^5 cells/ml concentrations in each of the specified culture mediums containing the test samples adjusted to each of the specified concentrations, then pipetted into a 96 well-plate (Costar3695) in an amount of 100 μl/well. The cells were cultured under the condition of at 37° C. in 5% CO2 atmosphere for 72 hours, and the number of each of the cells (T3days) were determined in the same manner.\nCell proliferation rate (%) with respect to control groups=[(T3days\n-C0days)/(C3days -C0days)]×100 Formula: 5"}, "[2]": {"test_system": "Sarcoma 180 solid tumor", "assay": "Antitumor Effect with respect to Sarcoma 180 Solid Tumor Mouse", "assay_type": "in vivo, ICR mice", "conditions": "10 mg/kg in abdominal cavity, 10 days; day 11", "description": "The antitumor effect test was conducted according to the method of the U. S. National Cancer Institute (NCI) (Cancer Chemotherapy Reports part 3, Vol. 3, 1 (1978)). Cell suspension of Sarcoma 180 cells (mouse sarcoma virus) which was employed as the tumor cell strain for transplant was prepared by diluting the cells in the Hank's solution at 2×10^7 cells/ml concentration ([…]), and ICR mice (10 mice per group) aged 5 weeks were injected subcutaneously with 0.2 ml of the cell suspension at the region of the back. Setting the day of the tumor transplantation as day 0. the mice were administered in the abdominal cavity with the compounds of the invention (Preparation Examples 1 and 37), 5-fluorouracyl, and the solution as the control for 10 days consecutively from day 1. On day 11, the mice were sacrificed, and portions of the solid tumor were removed so that weights thereof were measured. The dosage of each of the test samples was 10 mg/kg."}, "[3]": {"assay": "Acute Toxicity Test", "assay_type": "in vivo, SD rats", "description": "SD rats (3 rats per group) fasted overnight was employed in the present test. The title compound (Preparation Example 1) suspended in 1% methyl cellulose was administered to the rats. The test was conducted on the dosages of […]. […] It was indicted from the test result that the title compounds ensure the enhanced safety."}},
  "data": [
    {"compound": "Cc1cc(-c2ccc(F)cc2)c(-c2ccc(S(C)(=O)=O)cc2)[nH]1", "note": "[Preparation Example 1, 4-(4-fluorophenyl)-2-methyl-5-(4-methylsulfonylphenyl)-1H-pyrrole]", "values": [
      {"measurement": "cytostatic action", "setting": "[1]; CaCo-2 cells, colon cancer cells", "result": "demonstrated a cytostatic action with respect to CaCo-2 cells"},
      {"measurement": "IC50", "setting": "[1]; Homo sapiens, CaCo-2, 72 hours, XTT method, read-out: Cytostatic rate (IC50)", "result": 0.78, "unit": "µM"},
      {"measurement": "Tumor Weight", "setting": "[2]", "result": 0.726, "unit": "g"},
      {"measurement": "death", "setting": "[3]; 500/kg, 1000/kg, 2000/kg, observed for a week", "result": "no death was noted in the test"},
      {"measurement": "general symptoms after administration", "setting": "[3]; rat, in vivo", "result": "an analgesic action was noted after the administration, and the rats recovered to the normal state in one hour"},
      {"measurement": "weight and general symptoms after one week", "setting": "[3]; rat, in vivo", "result": "the weight increased favorably and no abnormality was noted in the general symptoms"}
    ]}
  ]
}
